Measured values taken from PMC8009520, “Exploration of TRPM8 Binding Sites by β-Carboline-Based Antagonists and Their In Vitro Characterization and In Vivo Analgesic Activities” (Journal of Medicinal Chemistry, 2020).
Read-outs that look alike come from different tables or passages of the source.

Target: T1, rat isoform of TRPM8 channels (Rattus norvegicus, UniProt Q8R455)
T1 construct: expressed in transfected cells
Assay: Ca2+ fluorimetric assay, menthol-activated channel
Format: cell-based
Experimental: TRPM8 blocker activity of all synthesized compounds was tested by Ca^2+ fluorimetric assays using HEK-293 cells stably expressing the rat isoform of TRPM8 channels, using menthol and AMTB as prototypical agonist and antagonist, respectively.
For measurement of the potency of the compounds, fluorimetric experiments were performed using HEK-293 cells (CRL-1573TM, American Type Culture Collection, LGC Promochem, Molsheim, France) that stably express rat TRPM8. The cells were seeded in 96-well plates (Corning Incorporated, Corning, NY) at a cell density of 40 000 cells 2 days before treatment. On the day of treatment, the medium was replaced with 100 μL of the dye loading solution Fluo-4 NW supplemented with probenecid 2.5 mM.
The tested molecules dissolved in DMSO were added at the desired concentrations, and the plates were incubated in darkness at 37 °C in a humidified atmosphere of 5% CO2 for 60 min. The fluorescence was measured using instrument settings appropriate for excitation at 485 nm and emission at 535 nm (POLARstar Omega BMG LABtech). A baseline recording of four cycles was recorded prior to stimulation with the agonist (100 μM menthol for TRPM8). The TRPM8 antagonist, 10 μM AMTB, was added to the medium containing the corresponding agonist to induce channel blockade. The changes in fluorescence intensity were recorded during 15 cycles more. The higher concentration of DMSO used in the experiment was added to the control wells. The cells’ fluorescence was measured before and after the addition of various concentrations of test compounds. The fluorescence values obtained are normalized to that prompted by the corresponding agonist (for channel activating compounds) or upon agonist and antagonist coexposure (for channel blocker compounds).

[1] = HEK-293 cells stably expressing rat TRPM8, menthol as agonist, mean ± SD of at least three measurements, read-out: IC50
[2] = supplementary xlsx, read-out: rTRPM8 IC50 (calcium microfluorimetric assays)

T1 sequence (Q8R455 whole entry, canonical isoform): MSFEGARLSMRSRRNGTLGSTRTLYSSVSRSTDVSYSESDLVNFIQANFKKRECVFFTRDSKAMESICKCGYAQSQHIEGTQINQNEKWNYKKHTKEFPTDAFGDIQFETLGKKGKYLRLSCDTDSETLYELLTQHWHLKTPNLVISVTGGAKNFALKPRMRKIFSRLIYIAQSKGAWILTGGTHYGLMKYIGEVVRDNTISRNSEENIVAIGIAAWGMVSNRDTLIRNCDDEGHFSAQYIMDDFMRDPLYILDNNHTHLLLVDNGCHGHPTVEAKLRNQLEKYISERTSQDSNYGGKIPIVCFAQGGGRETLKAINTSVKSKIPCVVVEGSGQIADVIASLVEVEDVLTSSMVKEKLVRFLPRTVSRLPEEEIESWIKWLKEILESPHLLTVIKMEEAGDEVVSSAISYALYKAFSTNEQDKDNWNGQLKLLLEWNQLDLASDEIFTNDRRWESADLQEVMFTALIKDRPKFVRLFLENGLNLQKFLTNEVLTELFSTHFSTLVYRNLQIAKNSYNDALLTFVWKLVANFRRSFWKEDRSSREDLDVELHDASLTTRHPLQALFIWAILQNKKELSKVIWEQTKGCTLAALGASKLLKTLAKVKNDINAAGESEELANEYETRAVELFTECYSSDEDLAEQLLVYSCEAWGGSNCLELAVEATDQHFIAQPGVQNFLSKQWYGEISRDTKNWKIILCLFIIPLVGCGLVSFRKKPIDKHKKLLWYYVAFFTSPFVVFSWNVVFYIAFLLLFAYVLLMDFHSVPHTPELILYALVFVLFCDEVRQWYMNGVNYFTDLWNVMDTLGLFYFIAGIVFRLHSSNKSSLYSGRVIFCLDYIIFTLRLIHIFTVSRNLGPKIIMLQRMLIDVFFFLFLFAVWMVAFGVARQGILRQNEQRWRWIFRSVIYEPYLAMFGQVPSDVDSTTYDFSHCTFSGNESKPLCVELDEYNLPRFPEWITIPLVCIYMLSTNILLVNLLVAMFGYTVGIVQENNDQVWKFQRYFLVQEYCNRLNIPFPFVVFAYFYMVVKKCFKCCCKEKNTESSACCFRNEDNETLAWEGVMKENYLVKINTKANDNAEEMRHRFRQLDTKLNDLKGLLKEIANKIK

SMILES	IC50 [1] [µM]	IC50 [2] [µM]	rTRPM8 IC50 (calcium microfluorimetric assays) (supplementary xlsx) [µM]
CC(C)C[C@@H]1N[C@H](C(=O)NCc2ccc(F)cc2)Cc2c1[nH]c1ccccc21 [10b, (1S,3S)-N-(4-Fluorobenzyl)-1-isobutyl-2,3,4,9-tetrahydro-1H-pyrido[3,4-b]indole-3-carboxamide]	6.2 ± 1.2		
CC(C)C[C@@H]1c2[nH]c3ccccc3c2C[C@H]2C(=O)N[C@@H](Cc3ccccc3)C(=O)N12 [25a, (3S,6R,12aS)-3-Benzyl-6-isobutyl-2,3,12,12a-tetrahydropyrazino[1′,2′:1,6]pyrido[3,4-b]indole-1,4(6H,7H)-dione]	4.1 ± 1.1		
CC(C)C[C@H]1c2[nH]c3ccccc3c2C[C@H]2C(=O)N[C@@H](Cc3ccccc3)C(=O)N21 [25b, (3S,6S,12aS)-3-Benzyl-6-isobutyl-2,3,12,12a-tetrahydropyrazino[1′,2′:1,6]pyrido[3,4-b]indole-1,4(6H,7H)-dione]	1.3 ± 0.6	0.9 ± 1.2	
COc1ccc(CN2C(=O)[C@@H]3Cc4c([nH]c5ccccc45)[C@@H](CC(C)C)N3C2=O)cc1 [29a, (5R,11aS)-5-Isobutyl-2-(4-methoxybenzyl)-5,6,11,11a-tetrahydro-1H-imidazo[1′,5′:1,6]pyrido[3,4-b]indole-1,3(2H)-dione]	2.8 ± 1.2		22.9 ± 1.4
COc1ccc(CN2C(=O)[C@H]3Cc4c([nH]c5ccccc45)[C@H](CC(C)C)N3C2=O)cc1 [29a′, (5S,11aR)-5-Isobutyl-2-(4-methoxybenzyl)-5,6,11,11a-tetrahydro-1H-imidazo[1′,5′:1,6]pyrido[3,4-b]indole-1,3(2H)-dione]	22.9 ± 1.4		
O=C1[C@@H]2Cc3c([nH]c4ccccc34)[C@@H](c3ccc(F)cc3)N2C(=O)N1Cc1ccccc1 [33a, (5R,11aS)-2-Benzyl-5-(4-fluorophenyl)-5,6,11,11a-tetrahydro-1H-imidazo[1′,5′:1,6]pyrido[3,4-b]indole-1,3(2H)-dione]	6.4 ± 1.2		17.5 ± 1.4
NCCCN1C(=O)[C@H]2Cc3c([nH]c4ccccc34)[C@H](c3ccc(F)cc3)N2C1=O [35a′, (5S,11aR)-2-(3-Aminopropyl)-5-(4-fluorophenyl)-5,6,11,11a-tetrahydro-1H-imidazo[1′,5′:1,6]pyrido[3,4-b]indole-1,3(2H)-dione]	27.2 ± 1.4		
O=C1[C@@H]2Cc3c([nH]c4ccccc34)[C@@H](c3ccc(F)cc3)N2C(=O)N1c1cccc(C(F)(F)F)c1 [36a, (5R,11aS)-5-(4-Fluorophenyl)-2-(3-(trifluoromethyl)phenyl)-5,6,11,11a-tetrahydro-1H-imidazo[1′,5′:1,6]pyrido[3,4-b]indole-1,3(2H)-dione]	2.8 ± 1.5		7.8 ± 2.4
O=C1[C@@H]2Cc3c([nH]c4ccccc34)[C@@H](c3ccc(F)cc3)N2C(=O)N1c1ccccc1F [37a, (5R,11aS)-2-(2-Fluorophenyl)-5-(4-fluorophenyl)-5,6,11,11a-tetrahydro-1H-imidazo[1′,5′:1,6]pyrido[3,4-b]indole-1,3(2H)-dione]	4.4 ± 1.3		5.1 ± 2.1
O=C1[C@H]2Cc3c([nH]c4ccccc34)[C@H](c3ccc(F)cc3)N2C(=O)N1c1ccccc1F [37a′, (5S,11aR)-2-(2-Fluorophenyl)-5-(4-fluorophenyl)-5,6,11,11a-tetrahydro-1H-imidazo[1′,5′:1,6]pyrido[3,4-b]indole-1,3(2H)-dione]	5.1 ± 2.1		
O=C1[C@H]2Cc3c([nH]c4ccccc34)[C@H](c3ccc(F)cc3)N2C(=O)N1c1ccc(F)cc1 [38a′, (5S,11aR)-2,5-Bis(4-fluorophenyl)-5,6,11,11a-tetrahydro-1H-imidazo[1′,5′:1,6]pyrido[3,4-b]indole-1,3(2H)-dione]	7.2 ± 0.9		
COC(=O)[C@@H]1Cc2c([nH]c3ccccc23)CN1C(=O)CCN [compound 17, (S)-Methyl 2-(3-Aminopropanoyl)-2,3,4,9-tetrahydro-1H-pyrido[3,4-b]indole-3-carboxylate]	> 100		

More lines, now with the values ahead:

IC50 [1] [µM]	IC50 [2] [µM]	rTRPM8 IC50 (calcium microfluorimetric assays) (supplementary xlsx) [µM]	SMILES
1.6 ± 0.9	1.4 ± 1.3		COC(=O)[C@@H]1Cc2c([nH]c3ccccc23)[C@H](c2ccccc2)N1Cc1ccccc1 [6b, (1S,3S)-Methyl 2-Benzyl-1-phenyl-2,3,4,9-tetrahydro-1H-pyrido[3,4-b]indole-3-carboxylate]
4.6 ± 1.3			CC(C)C[C@H]1N[C@H](C(=O)NCc2ccc(F)cc2)Cc2c1[nH]c1ccccc21 [10a, (1R,3S)-N-(4-Fluorobenzyl)-1-isobutyl-2,3,4,9-tetrahydro-1H-pyrido[3,4-b]indole-3-carboxamide]
3 ± 1.2			COC(=O)CC[C@@H]1N[C@H](C(=O)NCc2ccc(F)cc2)Cc2c1[nH]c1ccccc21 [11b, Methyl 3-((1S,3S)-3-((4-Fluorobenzyl)carbamoyl)-2,3,4,9-tetrahydro-1H-pyrido[3,4-b]indol-1-yl)propanoate]
22 ± 1.4			O=C(O)CC[C@@H]1N[C@H](C(=O)NCc2ccc(F)cc2)Cc2c1[nH]c1ccccc21 [12b, 3-((1S,3S)-3-((4-Fluorobenzyl)carbamoyl)-2,3,4,9-tetrahydro-1H-pyrido[3,4-b]indol-1-yl)propanoic Acid]
1.5 ± 1.1			O=C1NCC(=O)N2[C@H](c3ccc(Cl)cc3)c3[nH]c4ccccc4c3C[C@@H]12 [27a, (6R,12aS)-6-(4-Chlorophenyl)-2,3,12,12a-tetrahydropyrazino[1′,2′:1,6]pyrido[3,4-b]indole-1,4(6H,7H)-dione]
1.7 ± 0.8	1.2 ± 1.7		O=C1NCC(=O)N2[C@@H](c3ccc(Cl)cc3)c3[nH]c4ccccc4c3C[C@@H]12 [27b, (6S,12aS)-6-(4-Chlorophenyl)-2,3,12,12a-tetrahydropyrazino[1′,2′:1,6]pyrido[3,4-b]indole-1,4(6H,7H)-dione]
0.8 ± 0.4		2.3 ± 0.8	Cc1ccc(CN2C(=O)[C@@H]3Cc4c([nH]c5ccccc45)[C@@H](c4ccc(Cl)cc4)N3C2=O)cc1 [30a, (5R,11aS)-5-(4-Chlorophenyl)-2-(4-methylbenzyl)-5,6,11,11a-tetrahydro-1H-imidazo[1′,5′:1,6]pyrido[3,4-b]indole-1,3(2H)-dione]
2.3 ± 0.8			Cc1ccc(CN2C(=O)[C@H]3Cc4c([nH]c5ccccc45)[C@H](c4ccc(Cl)cc4)N3C2=O)cc1 [30a′, (5S,11aR)-5-(4-Chlorophenyl)-2-(4-methylbenzyl)-5,6,11,11a-tetrahydro-1H-imidazo[1′,5′:1,6]pyrido[3,4-b]indole-1,3(2H)-dione]
> 30			O=C1[C@H]2Cc3c([nH]c4ccccc34)[C@H](c3ccc(Cl)cc3)N2C(=O)N1Cc1ccc(F)cc1 [31a′, (5S,11aR)-5-(4-Chlorophenyl)-2-(4-fluorobenzyl)-5,6,11,11a-tetrahydro-1H-imidazo[1′,5′:1,6]pyrido[3,4-b]indole-1,3(2H)-dione]
17.5 ± 1.4			O=C1[C@H]2Cc3c([nH]c4ccccc34)[C@H](c3ccc(F)cc3)N2C(=O)N1Cc1ccccc1 [33a′, (5S,11aR)-2-Benzyl-5-(4-fluorophenyl)-5,6,11,11a-tetrahydro-1H-imidazo[1′,5′:1,6]pyrido[3,4-b]indole-1,3(2H)-dione]
5.1 ± 1.2		27.2 ± 1.4	NCCCN1C(=O)[C@@H]2Cc3c([nH]c4ccccc34)[C@@H](c3ccc(F)cc3)N2C1=O [35a, (5R,11aS)-2-(3-Aminopropyl)-5-(4-fluorophenyl)-5,6,11,11a-tetrahydro-1H-imidazo[1′,5′:1,6]pyrido[3,4-b]indole-1,3(2H)-dione]
7.8 ± 2.4			O=C1[C@H]2Cc3c([nH]c4ccccc34)[C@H](c3ccc(F)cc3)N2C(=O)N1c1cccc(C(F)(F)F)c1 [36a′, (5S,11aR)-5-(4-Fluorophenyl)-2-(3-(trifluoromethyl)phenyl)-5,6,11,11a-tetrahydro-1H-imidazo[1′,5′:1,6]pyrido[3,4-b]indole-1,3(2H)-dione]
6.7 ± 1.2		7.2 ± 0.9	O=C1[C@@H]2Cc3c([nH]c4ccccc34)[C@@H](c3ccc(F)cc3)N2C(=O)N1c1ccc(F)cc1 [38a, (5R,11aS)-2,5-Bis(4-fluorophenyl)-5,6,11,11a-tetrahydro-1H-imidazo[1′,5′:1,6]pyrido[3,4-b]indole-1,3(2H)-dione]
7.3 ± 1.5			Cc1cccc(COc2ccccc2C(=O)N(CCCN)Cc2cccs2)c1 [AMTB, reference compound]
11.4 ± 1.6			O=C1NCC(=O)N2Cc3[nH]c4ccccc4c3C[C@@H]12 [compound 21, (S)-2,3,6,7,12,12a-Hexahydropyrazino[1′,2′:1,6]pyrido[3,4-b]indole-1,4-dione]
1.6 ± 0.7	1.2 ± 1.3		O=C1N[C@@H](Cc2ccccc2)C(=O)N2Cc3[nH]c4ccccc4c3C[C@@H]12 [compound 22, (3S,12aS)-3-Benzyl-2,3,12,12a-tetrahydropyrazino[1′,2′:1,6]pyrido[3,4-b]indole-1,4(6H,7H)-dione]
17.8 ± 1.2			O=C1[C@@H]2Cc3c([nH]c4ccccc34)CN2C(=O)N1Cc1ccc(F)cc1 [compound 28, (S)-2-(4-Fluorobenzyl)-5,6,11,11a-tetrahydro-1H-imidazo[1′,5′:1,6]pyrido[3,4-b]indole-1,3(2H)-dione]
